How the values were obtained:
Test in all cases: relative viability (nuclei count vs DMSO), 5 days (fraction); higher = more cells survive
[1] = compound: C1/C(=C\C2=CC=CS2)/C(=O)/C(=C/C3=CC=CS3)/C1 + Cc1nc(NC(=O)N2CCC[C@H]2C(N)=O)sc1-c1ccnc(C(C)(C)C(F)(F)F)c1 [Alpelisib] (partner 2 µM)
Outline: (§1)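 Each reported value is a median over duplicate plates. It expresses relative viability: treated-well nuclei count divided by vehicle-well nuclei count. Lung cancer cell lines in 1536-well plates were dosed by pin tool a day after seeding, alone with one drug or with a fixed anchor-drug dose plus five library-drug doses (not always all listed) in √10 steps, and nuclei were counted after 5 days.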

[2] = compound: C1/C(=C\C2=CC=CS2)/C(=O)/C(=C/C3=CC=CS3)/C1 + Cc1nc(Nc2ncc(C(=O)Nc3c(C)cccc3Cl)s2)cc(N2CCN(CCO)CC2)n1 [Dasatinib] (partner 0.075 µM)
Outline: as §1

TPCA-1 + OSI-027 = compound: C1=CC(=CC=C1C2=CC(=C(S2)NC(=O)N)C(=O)N)F [TPCA-1] + COc1cccc2cc(-c3nc([C@H]4CC[C@H](C(=O)O)CC4)n4ncnc(N)c34)[nH]c12 [OSI-027] (partner 0.5 µM)
Outline: as §1

TPCA-1 + Pemetrexed = compound: C1=CC(=CC=C1C2=CC(=C(S2)NC(=O)N)C(=O)N)F [TPCA-1] + Nc1nc2[nH]cc(CCc3ccc(C(=O)N[C@@H](CCC(=O)O)C(=O)O)cc3)c2c(=O)[nH]1 [Pemetrexed] (partner 0.2 µM)
Outline: as §1

Row | Cell Line | relative viability ([1]; first compound 0.2 µM) | relative viability ([1]; first compound 0.6325 µM) | relative viability ([1]; first compound 2 µM) | relative viability ([1]; first compound 6.325 µM) | relative viability ([1]; first compound 20 µM) | relative viability ([2]; first compound 0.2 µM) | relative viability ([2]; first compound 0.6325 µM) | relative viability ([2]; first compound 2 µM) | relative viability ([2]; first compound 6.325 µM) | relative viability ([2]; first compound 20 µM) | relative viability (TPCA-1 + OSI-027; first compound 0.04 µM) | relative viability (TPCA-1 + OSI-027; first compound 0.1265 µM) | relative viability (TPCA-1 + OSI-027; first compound 0.4 µM) | relative viability (TPCA-1 + OSI-027; first compound 1.265 µM) | relative viability (TPCA-1 + OSI-027; first compound 4 µM) | relative viability (TPCA-1 + Pemetrexed; first compound 0.04 µM) | relative viability (TPCA-1 + Pemetrexed; first compound 0.1265 µM) | relative viability (TPCA-1 + Pemetrexed; first compound 0.4 µM) | relative viability (TPCA-1 + Pemetrexed; first compound 1.265 µM) | relative viability (TPCA-1 + Pemetrexed; first compound 4 µM)
1 | A549 | 0.608 | 0.867 | 0.746 | 0.483 | 0.73 | – | – | – | – | – | – | – | – | – | – | – | – | – | – | –
2 | SW 1573 | 0.785 | 0.905 | 0.838 | 0.547 | 0.757 | 0.564 | 0.516 | 0.475 | 0.429 | 0.449 | 0.898 | 0.402 | 0.641 | 0.666 | 0.438 | 0.792 | 0.823 | 0.844 | 0.924 | 0.715
3 | NCI-H1975 | 0.736 | 0.627 | 0.617 | 0.592 | 0.62 | 0.445 | 0.328 | – | 0.206 | 0.387 | 0.836 | 0.737 | 0.676 | 0.633 | 0.295 | 0.305 | 0.297 | 0.3 | 0.298 | 0.286
4 | Calu-6 | 0.971 | 1.08 | 1.04 | 0.849 | 1.01 | – | – | – | – | – | – | – | – | – | – | – | – | – | – | –
5 | NCI-H1648 | – | – | – | – | – | – | – | – | – | – | 0.266 | 0.244 | 0.247 | 0.208 | 0.257 | 0.824 | 0.702 | 0.769 | 0.76 | 0.809
6 | NCI-H1623 | – | – | – | – | – | 0.53 | 0.561 | 0.52 | 0.52 | 0.53 | 0.497 | 0.509 | 0.484 | 0.514 | 0.389 | – | – | – | – | –
7 | NCI-H3122 | 0.887 | 0.785 | 0.876 | 0.488 | 0.891 | 0.843 | 0.836 | 1.05 | 0.827 | 0.82 | 1.29 | 0.837 | 0.954 | 0.854 | 0.517 | 0.203 | 0.23 | 0.222 | 0.191 | 0.19
8 | NCI-H2347 | 1.1 | 1.07 | 0.963 | 0.952 | 1.15 | 0.323 | 0.281 | 0.311 | – | 0.352 | 0.442 | 0.483 | 0.43 | 0.346 | 0.518 | 0.385 | 0.419 | 0.417 | 0.385 | 0.424
9 | HCC-44 | 0.751 | 0.856 | 0.813 | 0.668 | 0.799 | – | – | – | – | – | 0.64 | 0.462 | 0.503 | – | 0.495 | 0.617 | 0.657 | 0.575 | 0.627 | 0.595
10 | HCC-78 | 0.349 | 0.313 | 0.359 | 0.321 | 0.342 | 0.332 | 0.461 | 0.537 | 0.413 | 0.291 | 0.411 | 0.357 | 0.385 | 0.335 | 0.337 | 0.919 | 0.911 | 0.932 | 0.885 | 0.9
11 | COR-L23 | 0.772 | 0.829 | 0.818 | 0.722 | 0.686 | 0.571 | 0.48 | 0.571 | 0.429 | 0.492 | 0.749 | 0.706 | 0.823 | 0.683 | 0.286 | 0.206 | 0.207 | 0.184 | 0.193 | 0.196
12 | NCI-H2342 | – | – | – | – | – | 0.314 | 0.347 | 0.352 | 0.306 | 0.326 | 0.566 | 0.537 | 0.536 | 0.555 | 0.514 | 0.821 | 0.709 | 0.778 | 0.609 | 0.584
13 | NCI-H727 | 0.578 | 0.532 | 0.616 | 0.507 | 0.567 | 0.333 | 0.49 | 0.447 | 0.449 | 0.387 | 0.603 | 0.43 | 0.664 | 0.369 | 0.541 | – | – | – | – | –
14 | ABC-1 | 1.06 | 1.17 | 1.11 | 0.881 | 0.739 | 0.648 | 0.576 | 0.626 | 0.7 | 0.701 | 0.592 | 0.515 | 0.62 | 0.475 | 0.293 | – | – | – | – | –
15 | NCI-H522 | – | – | – | – | – | 0.901 | 0.854 | 1.01 | 0.834 | 0.919 | 0.744 | 0.721 | 0.843 | 0.837 | 0.643 | 1.21 | 0.765 | 1.15 | 1.14 | 0.975
16 | SW 900 | – | – | – | – | – | 0.64 | 0.773 | 0.769 | 0.574 | 0.671 | 0.705 | 0.576 | 0.768 | 0.463 | 0.475 | – | – | 0.492 | 0.495 | 0.468
17 | EBC-1 | 0.852 | 0.923 | 0.947 | 0.786 | 0.845 | – | – | – | – | – | – | – | – | – | – | – | – | – | – | –
18 | NCI-H1650 | – | – | – | – | – | 0.313 | 0.3 | 0.341 | 0.306 | 0.316 | 0.639 | – | 0.682 | 0.798 | 0.531 | 0.382 | 0.369 | 0.424 | 0.358 | 0.365
19 | IA-LM | 0.728 | 0.746 | 0.651 | 0.679 | 0.768 | – | – | – | – | – | – | – | – | – | – | – | – | – | – | –
20 | NCI-H1703 | 0.41 | 0.453 | 0.334 | 0.287 | 0.318 | – | – | – | – | – | – | – | – | – | – | – | – | – | – | –

From the supplement of paper PMC10307832
